Results: PubChem BioAssay (NCI)
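Protocol summary: plate cells (96-well), add compound at 5 concentrations, incubate 48 h, interpolate endpoints linearly. TGI marks complete inhibition of growth.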

Legend:
Assay in all cases: NCI tumour cell line growth inhibition, 48 h
RPMI-8226 leukemia = system: RPMI-8226 leukemia
MDA-N = system: MDA-N
OVCAR-3 ovarian = system: OVCAR-3 ovarian
NCI-H522 lung = system: NCI-H522 lung
M14 melanoma = system: M14 melanoma
SNB-19 CNS = system: SNB-19 CNS
HCC-2998 colon = system: HCC-2998 colon
SK-MEL-5 melanoma = system: SK-MEL-5 melanoma
OVCAR-5 ovarian = system: OVCAR-5 ovarian
RXF 393 renal = system: RXF 393 renal
SNB-75 CNS = system: SNB-75 CNS
NCI-H226 lung = system: NCI-H226 lung
A498 renal = system: A498 renal
UO-31 renal = system: UO-31 renal
HT29 colon = system: HT29 colon
UACC-62 melanoma = system: UACC-62 melanoma
TK-10 renal = system: TK-10 renal
OVCAR-8 ovarian = system: OVCAR-8 ovarian
SK-MEL-28 melanoma = system: SK-MEL-28 melanoma
HCT-15 colon = system: HCT-15 colon
SF-295 CNS = system: SF-295 CNS
UACC-257 melanoma = system: UACC-257 melanoma
CAKI-1 renal = system: CAKI-1 renal
MCF7 breast = system: MCF7 breast
NCI/ADR-RES ovarian = system: NCI/ADR-RES ovarian
KM12 colon = system: KM12 colon
HOP-92 NSCLC = system: HOP-92 NSCLC
SW-620 colon = system: SW-620 colon
LOX IMVI melanoma = system: LOX IMVI melanoma
SK-MEL-2 melanoma = system: SK-MEL-2 melanoma
NCI-H23 lung = system: NCI-H23 lung
U251 CNS = system: U251 CNS
MALME-3M melanoma = system: MALME-3M melanoma
HS 578T breast = system: HS 578T breast
MDA-MB-231 breast = system: MDA-MB-231 breast
SF-539 CNS = system: SF-539 CNS
A549 NSCLC = system: A549 NSCLC
IGROV1 ovarian = system: IGROV1 ovarian
786-0 renal = system: 786-0 renal
DU-145 prostate = system: DU-145 prostate
BT-549 breast = system: BT-549 breast
PC-3 prostate = system: PC-3 prostate
SF-268 CNS = system: SF-268 CNS
SN12C renal = system: SN12C renal
HCT-116 colon = system: HCT-116 colon
NCI-H460 lung = system: NCI-H460 lung
OVCAR-4 ovarian = system: OVCAR-4 ovarian
COLO 205 colon = system: COLO 205 colon
SK-OV-3 ovarian = system: SK-OV-3 ovarian
ACHN renal = system: ACHN renal
K-562 leukemia = system: K-562 leukemia
HL-60(TB) leukemia = system: HL-60(TB) leukemia
HOP-62 NSCLC = system: HOP-62 NSCLC
SR leukemia = system: SR leukemia
T-47D breast = system: T-47D breast
EKVX NSCLC = system: EKVX NSCLC
MDA-MB-435 = system: MDA-MB-435
MOLT-4 leukemia = system: MOLT-4 leukemia
CCRF-CEM leukemia = system: CCRF-CEM leukemia

`O=C(NCc1cccnc1)NCc1cccnc1` was tested, and the TGI (RPMI-8226 leukemia) was > 100 µM, the TGI (MDA-N) was > 100 µM and the TGI (OVCAR-3 ovarian) was > 100 µM. For the same compound, the TGI (NCI-H522 lung) was > 100 µM, the TGI (M14 melanoma) was > 100 µM and the TGI (SNB-19 CNS) was > 100 µM. For the same compound, the TGI (HCC-2998 colon) was > 100 µM, the TGI (SK-MEL-5 melanoma) was > 100 µM and the TGI (OVCAR-5 ovarian) was > 100 µM. The TGI (RXF 393 renal) was > 100 µM, the TGI (SNB-75 CNS) was > 100 µM and the TGI (NCI-H226 lung) was > 100 µM. The TGI (A498 renal) was > 100 µM, the TGI (UO-31 renal) was > 100 µM and the TGI (HT29 colon) was > 100 µM. For the same compound, the TGI (UACC-62 melanoma) was > 100 µM, the TGI (TK-10 renal) was > 100 µM and the TGI (OVCAR-8 ovarian) was > 100 µM. The TGI (SK-MEL-28 melanoma) was > 100 µM, the TGI (HCT-15 colon) was > 100 µM and the TGI (SF-295 CNS) was > 100 µM. The TGI (UACC-257 melanoma) was > 100 µM, the TGI (CAKI-1 renal) was > 100 µM and the TGI (MCF7 breast) was > 100 µM. The TGI (NCI/ADR-RES ovarian) was > 100 µM, the TGI (KM12 colon) was > 100 µM and the TGI (HOP-92 NSCLC) was > 100 µM. For the same compound, the TGI (SW-620 colon) was > 100 µM, the TGI (LOX IMVI melanoma) was > 100 µM and the TGI (SK-MEL-2 melanoma) was > 100 µM. For the same compound, the TGI (NCI-H23 lung) was > 100 µM, the TGI (U251 CNS) was > 100 µM and the TGI (MALME-3M melanoma) was > 100 µM. The TGI (HS 578T breast) was > 100 µM, the TGI (MDA-MB-231 breast) was > 100 µM and the TGI (SF-539 CNS) was > 100 µM. The TGI (A549 NSCLC) was > 100 µM, the TGI (IGROV1 ovarian) was > 100 µM and the TGI (786-0 renal) was > 100 µM. The TGI (DU-145 prostate) was > 100 µM, the TGI (BT-549 breast) was > 100 µM and the TGI (PC-3 prostate) was > 100 µM. For the same compound, the TGI (SF-268 CNS) was > 100 µM, the TGI (SN12C renal) was > 100 µM and the TGI (HCT-116 colon) was > 100 µM. For the same compound, the TGI (NCI-H460 lung) was > 100 µM, the TGI (OVCAR-4 ovarian) was > 100 µM and the TGI (COLO 205 colon) was > 100 µM. For the same compound, the TGI (SK-OV-3 ovarian) was > 100 µM, the TGI (ACHN renal) was > 100 µM and the TGI (K-562 leukemia) was > 100 µM. The TGI (HL-60(TB) leukemia) was > 100 µM, the TGI (HOP-62 NSCLC) was > 100 µM and the TGI (SR leukemia) was > 100 µM. For the same compound, the TGI (T-47D breast) was > 100 µM, the TGI (EKVX NSCLC) was > 100 µM and the TGI (MDA-MB-435) was > 100 µM.
In the case of `O=C(O[C@H]1[C@@H](O)[C@H](n2cnc3c(Cl)ncnc32)O[C@@H]1COC(c1ccccc1)(c1ccccc1)c1ccccc1)c1ccccc1`, the TGI (RPMI-8226 leukemia) is reported as 5.39 µM, the TGI (MDA-N) is reported as > 100 µM and the TGI (OVCAR-3 ovarian) is reported as 35 µM. For the same compound, the TGI (NCI-H522 lung) was 91.5 µM, the TGI (M14 melanoma) was > 100 µM and the TGI (SNB-19 CNS) was > 100 µM. The TGI (HCC-2998 colon) was 41.9 µM, the TGI (SK-MEL-5 melanoma) was 31.8 µM and the TGI (OVCAR-5 ovarian) was > 100 µM. The TGI (MOLT-4 leukemia) was 17.9 µM, the TGI (RXF 393 renal) was 48.1 µM and the TGI (SNB-75 CNS) was > 100 µM. The TGI (NCI-H226 lung) was > 100 µM, the TGI (A498 renal) was 31 µM and the TGI (UO-31 renal) was 2.73 µM. For the same compound, the TGI (HT29 colon) was 62.1 µM, the TGI (UACC-62 melanoma) was > 100 µM and the TGI (TK-10 renal) was > 100 µM. The TGI (OVCAR-8 ovarian) was > 100 µM, the TGI (SK-MEL-28 melanoma) was > 100 µM and the TGI (HCT-15 colon) was > 100 µM. The TGI (SF-295 CNS) was 53.9 µM, the TGI (UACC-257 melanoma) was 41.5 µM and the TGI (CAKI-1 renal) was 10.1 µM. The TGI (MCF7 breast) was 23.4 µM, the TGI (NCI/ADR-RES ovarian) was > 100 µM and the TGI (KM12 colon) was 41.7 µM. For the same compound, the TGI (HOP-92 NSCLC) was 44.8 µM, the TGI (SW-620 colon) was > 100 µM and the TGI (LOX IMVI melanoma) was > 100 µM. The TGI (SK-MEL-2 melanoma) was 49.7 µM, the TGI (NCI-H23 lung) was > 100 µM and the TGI (CCRF-CEM leukemia) was > 100 µM. It also gave a TGI (U251 CNS) of 59.2 µM, a TGI (HS 578T breast) of 8.78 µM and a TGI (MDA-MB-231 breast) of 51.1 µM. The TGI (SF-539 CNS) was 47.3 µM, the TGI (A549 NSCLC) was > 100 µM and the TGI (IGROV1 ovarian) was > 100 µM. For the same compound, the TGI (786-0 renal) was 58.1 µM, the TGI (DU-145 prostate) was 3.85 µM and the TGI (BT-549 breast) was 97.7 µM. The TGI (PC-3 prostate) was 24.5 µM, the TGI (SF-268 CNS) was 61.3 µM and the TGI (SN12C renal) was 30.6 µM. For the same compound, the TGI (HCT-116 colon) was > 100 µM, the TGI (NCI-H460 lung) was 64.9 µM and the TGI (OVCAR-4 ovarian) was > 100 µM. For the same compound, the TGI (COLO 205 colon) was 29.3 µM, the TGI (SK-OV-3 ovarian) was > 100 µM and the TGI (ACHN renal) was 31 µM. The TGI (K-562 leukemia) was > 100 µM, the TGI (HL-60(TB) leukemia) was 40.7 µM and the TGI (HOP-62 NSCLC) was 51.7 µM. It also gave a TGI (SR leukemia) of 18.6 µM, a TGI (T-47D breast) of 24.9 µM and a TGI (EKVX NSCLC) of 32.3 µM. For the same compound, the TGI (MDA-MB-435) was > 100 µM.
With `CC1CCCc2c(C#N)c(N)nc(-c3ccc(Cl)cc3)c21` (centres undefined) the TGI (RPMI-8226 leukemia) was 39.2 µM, the TGI (MDA-N) was 93.9 µM and the TGI (OVCAR-3 ovarian) was 44.4 µM. For the same compound, the TGI (M14 melanoma) was 66.4 µM, the TGI (SNB-19 CNS) was > 100 µM and the TGI (SK-MEL-5 melanoma) was 35.9 µM. The TGI (OVCAR-5 ovarian) was 63.3 µM, the TGI (MOLT-4 leukemia) was 43.2 µM and the TGI (RXF 393 renal) was 21.5 µM. For the same compound, the TGI (SNB-75 CNS) was 81.6 µM, the TGI (NCI-H226 lung) was 43.3 µM and the TGI (A498 renal) was > 100 µM. It also gave a TGI (UO-31 renal) of 79.7 µM, a TGI (HT29 colon) of 44.4 µM and a TGI (UACC-62 melanoma) of 38.2 µM. The TGI (TK-10 renal) was > 100 µM, the TGI (OVCAR-8 ovarian) was > 100 µM and the TGI (SK-MEL-28 melanoma) was > 100 µM. For the same compound, the TGI (HCT-15 colon) was > 100 µM, the TGI (SF-295 CNS) was 49.2 µM and the TGI (UACC-257 melanoma) was 79.9 µM. The TGI (CAKI-1 renal) was > 100 µM, the TGI (MCF7 breast) was 84.5 µM and the TGI (NCI/ADR-RES ovarian) was > 100 µM. For the same compound, the TGI (KM12 colon) was > 100 µM, the TGI (SW-620 colon) was > 100 µM and the TGI (LOX IMVI melanoma) was 36.3 µM. For the same compound, the TGI (SK-MEL-2 melanoma) was 44.4 µM, the TGI (NCI-H23 lung) was 93.7 µM and the TGI (CCRF-CEM leukemia) was > 100 µM. The TGI (U251 CNS) was > 100 µM, the TGI (MALME-3M melanoma) was 85.1 µM and the TGI (HS 578T breast) was > 100 µM. For the same compound, the TGI (MDA-MB-231 breast) was 81.8 µM, the TGI (SF-539 CNS) was 33 µM and the TGI (IGROV1 ovarian) was 56.8 µM. The TGI (786-0 renal) was 38.2 µM, the TGI (DU-145 prostate) was > 100 µM and the TGI (BT-549 breast) was > 100 µM. For the same compound, the TGI (PC-3 prostate) was 42.9 µM, the TGI (SF-268 CNS) was > 100 µM and the TGI (SN12C renal) was 38.2 µM. The TGI (HCT-116 colon) was > 100 µM, the TGI (NCI-H460 lung) was 59 µM and the TGI (COLO 205 colon) was 67.7 µM. The TGI (SK-OV-3 ovarian) was > 100 µM, the TGI (ACHN renal) was 38.4 µM and the TGI (K-562 leukemia) was > 100 µM. For the same compound, the TGI (HL-60(TB) leukemia) was 83.3 µM, the TGI (HOP-62 NSCLC) was 24.8 µM and the TGI (SR leukemia) was 72.8 µM. For the same compound, the TGI (T-47D breast) was 74.5 µM, the TGI (EKVX NSCLC) was > 100 µM and the TGI (MDA-MB-435) was > 100 µM.
